{
  "source": "patent US11819512B2",
  "about": "“Solid forms of a CD73 inhibitor and the use thereof” (ARCUS BIOSCIENCES, INC., priority 2018, dated 2023)",
  "key": {"[1]": {"experiment": "Stability of crystalline material on storage (HPLC and XRPD)", "type": "physicochemical", "settings": "for purity by HPLC after storage: decrease from 99%"}, "[2]": {"experiment": "Hygroscopicity by dynamic vapor sorption (DVS)", "type": "physicochemical", "settings": "25° C.", "description": "A quantity of the crystalline material was analyzed by dynamic vapor sorption (DVS). The sample was subjected to a ramping profile from 40-90% RH at 10% increments, maintaining the sample at each step until a stable weight had been achieved at 25° C. After completion of the sorption cycle, the sample was dried using the same procedure to 0% RH followed by a second sorption cycle back to 40% RH. Two cycles were performed overall. The weight change during the sorption/desorption cycles were plotted, allowing for the hygroscopic nature of the sample to be determined. Significant hysteresis was observed, with the material retaining much larger quantities of water during the second sorption cycle as shown in FIG. 10. […] The amount of water in the sample at 90% relative humidity corresponds to the pentahydrate of the material."}, "[3]": {"settings": "40° C. at 75% relative humidity (RH) for one week"}},
  "data": [
    {"compound": "C[C@H](Nc1cc(Cl)nc2c1cnn2[C@@H]1O[C@H](COP(=O)(O)CP(=O)(O)O)[C@@H](O)[C@H]1O)c1ccccc1F", "note": "[crystalline material, [({[(2R,3S,4R,5R)-5-(6-chloro-4-{[(1S)-1-(2-fluorophenyl)ethyl]amino}-1H-pyrazolo[3,4-b]pyridin-1-yl)-3,4-dihydroxyoxolan-2-yl]methoxy}(hydroxy)phosphoryl)methyl]phosphonic Acid]", "values": [
      {"measurement": "crystallinity after storage", "setting": "[1]; 25° C. at 60% relative humidity (RH) for one week", "result": "no change in crystallinity"},
      {"measurement": "solid form by XRPD after storage", "setting": "[1]; [3]", "result": "conversion to the amorphous material"},
      {"measurement": "purity by HPLC after storage", "setting": "[1]; [3]", "result": 97.3, "unit": "%"},
      {"measurement": "morphology by XRPD after storage", "setting": "[1]; 80° C. for one week", "result": "no change in morphology"},
      {"measurement": "purity by HPLC after storage", "setting": "[1]; 80° C. for one week", "result": 97.4, "unit": "%"},
      {"measurement": "hygroscopic nature", "setting": "[2]; DVS", "result": "hygroscopic"},
      {"measurement": "XRPD of the sample post-DVS", "setting": "[2]; after two sorption/desorption cycles, 0-90% RH", "result": "loss of crystallinity and regeneration of amorphous material"},
      {"measurement": "increase of water (weight) by DVS", "setting": "[2]; at 90% relative humidity relative to 0% relative humidity", "result": 13.2, "unit": "% wt."}
    ]}
  ]
}
